Activity calls are given as the source filed them.
Columns and labels:
Beta-galactosidase = Beta-galactosidase (Escherichia coli, UniProt Q8VNN2); experiment: PubChem AID 485352; format: functional
[1] = biological target: T1, Type-1 angiotensin II receptor (Homo sapiens, UniProt P30556); experiment: AT1 receptor antagonists, dose response, selectivity assay for APJ receptor antagonist project, cell-based, uHTS hits (AID 463214); format: functional;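 also: antagonist potency against angiotensin II stimulated AT1 response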
T1 sequence (P30556 whole entry): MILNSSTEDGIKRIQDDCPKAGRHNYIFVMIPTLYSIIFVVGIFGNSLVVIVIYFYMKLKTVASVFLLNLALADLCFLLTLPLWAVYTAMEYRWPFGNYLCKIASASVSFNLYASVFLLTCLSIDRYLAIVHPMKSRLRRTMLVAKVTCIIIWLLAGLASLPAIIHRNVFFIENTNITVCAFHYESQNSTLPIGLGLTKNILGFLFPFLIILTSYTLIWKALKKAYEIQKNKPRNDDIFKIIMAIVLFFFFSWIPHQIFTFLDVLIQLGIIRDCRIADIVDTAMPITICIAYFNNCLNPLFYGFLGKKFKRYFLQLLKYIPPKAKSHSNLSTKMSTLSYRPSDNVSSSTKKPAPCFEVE

[2] = biological target: T2, Oxysterols receptor LXR-beta (Homo sapiens, UniProt P55055); format: functional, cell-based;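 also: agonist activity at LXR measured by a cell-based luminescence readout across a dose range, run as a counterscreen for daf-12 agonists; HEK293 cells with Gal4-LXR fusion and GAL4-driven luciferase reporter; potency for activation of Gal4-LXR reporter so compounds are agonists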
T2 sequence (P55055 whole entry): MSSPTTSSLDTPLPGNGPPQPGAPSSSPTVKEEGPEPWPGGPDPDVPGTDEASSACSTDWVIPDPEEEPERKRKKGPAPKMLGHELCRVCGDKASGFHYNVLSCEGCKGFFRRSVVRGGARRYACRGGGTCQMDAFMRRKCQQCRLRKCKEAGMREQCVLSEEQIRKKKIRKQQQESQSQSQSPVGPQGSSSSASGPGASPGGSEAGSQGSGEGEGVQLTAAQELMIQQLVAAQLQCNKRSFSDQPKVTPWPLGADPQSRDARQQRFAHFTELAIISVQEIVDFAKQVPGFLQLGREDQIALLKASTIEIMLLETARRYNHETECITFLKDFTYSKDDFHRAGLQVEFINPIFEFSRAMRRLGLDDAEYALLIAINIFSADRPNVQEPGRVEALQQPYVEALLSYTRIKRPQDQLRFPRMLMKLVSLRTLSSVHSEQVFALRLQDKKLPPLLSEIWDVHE

HeLa = experiment: HeLa cell cytotoxicity, dose response, cytotoxicity control for MITF activator project, CellTiter-Glo luminescence, cherry-pick samples (AID 540259); format: functional, cell-based; settings: Homo sapiens

Sequence of Beta-galactosidase (Q8VNN2 whole entry): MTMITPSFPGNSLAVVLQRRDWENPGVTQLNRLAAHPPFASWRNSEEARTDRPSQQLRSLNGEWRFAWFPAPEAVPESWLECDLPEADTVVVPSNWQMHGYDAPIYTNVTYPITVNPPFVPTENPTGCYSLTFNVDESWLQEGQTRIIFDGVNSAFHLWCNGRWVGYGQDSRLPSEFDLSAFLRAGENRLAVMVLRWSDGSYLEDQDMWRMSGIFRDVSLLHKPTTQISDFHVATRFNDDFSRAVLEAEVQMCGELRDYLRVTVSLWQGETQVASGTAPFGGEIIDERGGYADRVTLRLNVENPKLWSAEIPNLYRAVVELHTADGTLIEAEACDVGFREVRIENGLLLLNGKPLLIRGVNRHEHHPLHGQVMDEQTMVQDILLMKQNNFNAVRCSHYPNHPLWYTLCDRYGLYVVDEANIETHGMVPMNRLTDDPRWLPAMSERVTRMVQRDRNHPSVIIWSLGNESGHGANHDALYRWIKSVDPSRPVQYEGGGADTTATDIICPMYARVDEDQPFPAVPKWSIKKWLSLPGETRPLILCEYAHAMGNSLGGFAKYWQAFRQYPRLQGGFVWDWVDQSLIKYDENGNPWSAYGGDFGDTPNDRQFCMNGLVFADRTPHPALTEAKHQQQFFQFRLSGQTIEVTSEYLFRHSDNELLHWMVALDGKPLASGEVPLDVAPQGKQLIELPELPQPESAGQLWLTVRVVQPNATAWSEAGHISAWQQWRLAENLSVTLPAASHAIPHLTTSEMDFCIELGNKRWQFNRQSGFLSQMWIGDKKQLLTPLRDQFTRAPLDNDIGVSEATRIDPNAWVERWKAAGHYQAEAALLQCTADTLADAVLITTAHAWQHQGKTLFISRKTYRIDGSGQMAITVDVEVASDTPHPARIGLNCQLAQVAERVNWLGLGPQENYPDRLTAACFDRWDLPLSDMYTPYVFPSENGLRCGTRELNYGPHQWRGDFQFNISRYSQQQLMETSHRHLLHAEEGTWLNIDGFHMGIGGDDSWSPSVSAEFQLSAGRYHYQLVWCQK

Structure (SMILES) | EC50 (Beta-galactosidase) | IC50 [1] | EC50 [2] | AC50 (HeLa)
COc1ccc(S(=O)(=O)NNc2nc(C)cc(C)n2)cc1Br | > 40 µM (inactive) | > 40 µM (not active) |  | 
Cc1ccn(-c2cccc(-n3ccc(C)n3)n2)n1 |  |  | > 67.6 µM (inactive) | 46.9 µM (active)

From ChEMBL document CHEMBL1201862, “PubChem BioAssay data set” (2004)
